Calls of active or inactive are those of the source. The rule behind the calls is not given here.
Columns and labels:
Acetylcholinesterase = Acetylcholinesterase (Electrophorus electricus, UniProt O42275); assay: Inhibition of electric eel AChE using acetylthiocholine iodide as substrate incubated for 6 mins prior to substrate addition measured after 60 to 180 secs by Ellman's method
[1] = biological target: T1, Amine oxidase [flavin-containing] B (Homo sapiens, UniProt P27338)
T1 sequence (P27338 whole entry): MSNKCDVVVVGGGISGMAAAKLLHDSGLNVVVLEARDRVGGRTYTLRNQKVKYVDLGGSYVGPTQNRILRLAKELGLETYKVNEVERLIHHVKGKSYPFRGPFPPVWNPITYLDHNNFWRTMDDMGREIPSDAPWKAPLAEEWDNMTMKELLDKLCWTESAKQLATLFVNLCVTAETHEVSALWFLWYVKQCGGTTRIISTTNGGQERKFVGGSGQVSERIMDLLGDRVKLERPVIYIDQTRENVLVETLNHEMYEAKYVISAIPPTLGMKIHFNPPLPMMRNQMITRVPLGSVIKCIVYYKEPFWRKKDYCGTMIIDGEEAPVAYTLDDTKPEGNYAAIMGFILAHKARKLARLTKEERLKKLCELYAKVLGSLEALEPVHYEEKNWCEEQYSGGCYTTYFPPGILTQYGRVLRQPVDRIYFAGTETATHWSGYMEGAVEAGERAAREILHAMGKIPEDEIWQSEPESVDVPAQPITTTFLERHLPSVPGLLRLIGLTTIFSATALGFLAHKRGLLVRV

[2] = biological target: T2, Amine oxidase [flavin-containing] A (Homo sapiens, UniProt P21397)
T2 sequence (P21397 whole entry): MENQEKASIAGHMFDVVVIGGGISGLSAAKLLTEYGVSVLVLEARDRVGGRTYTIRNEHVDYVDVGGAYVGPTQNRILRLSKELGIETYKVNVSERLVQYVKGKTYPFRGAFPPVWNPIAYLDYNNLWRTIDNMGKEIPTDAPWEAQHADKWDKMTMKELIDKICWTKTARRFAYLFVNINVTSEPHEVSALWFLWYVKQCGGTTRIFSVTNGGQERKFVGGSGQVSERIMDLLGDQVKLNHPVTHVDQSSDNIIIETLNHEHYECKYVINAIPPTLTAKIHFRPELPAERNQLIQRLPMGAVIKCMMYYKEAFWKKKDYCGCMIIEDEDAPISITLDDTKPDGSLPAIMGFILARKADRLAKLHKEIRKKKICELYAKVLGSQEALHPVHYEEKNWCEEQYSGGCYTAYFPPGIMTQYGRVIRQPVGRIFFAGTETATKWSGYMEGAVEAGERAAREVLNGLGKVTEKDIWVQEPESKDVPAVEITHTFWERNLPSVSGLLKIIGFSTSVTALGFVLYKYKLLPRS

Cholinesterase = Cholinesterase (Equus caballus, UniProt P81908)
Homo sapiens = species: Homo sapiens; assay: Selectivity index, ratio of IC50 for human MAO-B to IC50 for human MAO-A
[3] = biological target: Acetylcholinesterase (Electrophorus electricus) (UniProt O42275); assay: Mixed-type inhibition of electric eel AChE using acetylthiocholine iodide as substrate incubated for 15 mins prior to substrate addition by Lineweaver-Burk plot analysis
[4] = Cytotoxicity against human SH-SY5Y cells assessed as cell viability at 50 uM after 24 hrs by MTT assay; format: cell-based; conditions: read-out: Activity
[5] = Cytotoxicity against human SH-SY5Y cells assessed as cell viability at 5 uM after 24 hrs by MTT assay; format: cell-based; conditions: read-out: Activity
[6] = Cytotoxicity against human SH-SY5Y cells assessed as cell viability at 10 uM after 24 hrs by MTT assay; format: cell-based; conditions: read-out: Activity
[7] = Cytotoxicity against human SH-SY5Y cells assessed as cell viability at 1 uM after 24 hrs by MTT assay; format: cell-based; conditions: read-out: Activity
[8] = Cytotoxicity against human SH-SY5Y cells assessed as cell viability at 25 uM after 24 hrs by MTT assay; format: cell-based; conditions: read-out: Activity

Sequence of Acetylcholinesterase (O42275 whole entry): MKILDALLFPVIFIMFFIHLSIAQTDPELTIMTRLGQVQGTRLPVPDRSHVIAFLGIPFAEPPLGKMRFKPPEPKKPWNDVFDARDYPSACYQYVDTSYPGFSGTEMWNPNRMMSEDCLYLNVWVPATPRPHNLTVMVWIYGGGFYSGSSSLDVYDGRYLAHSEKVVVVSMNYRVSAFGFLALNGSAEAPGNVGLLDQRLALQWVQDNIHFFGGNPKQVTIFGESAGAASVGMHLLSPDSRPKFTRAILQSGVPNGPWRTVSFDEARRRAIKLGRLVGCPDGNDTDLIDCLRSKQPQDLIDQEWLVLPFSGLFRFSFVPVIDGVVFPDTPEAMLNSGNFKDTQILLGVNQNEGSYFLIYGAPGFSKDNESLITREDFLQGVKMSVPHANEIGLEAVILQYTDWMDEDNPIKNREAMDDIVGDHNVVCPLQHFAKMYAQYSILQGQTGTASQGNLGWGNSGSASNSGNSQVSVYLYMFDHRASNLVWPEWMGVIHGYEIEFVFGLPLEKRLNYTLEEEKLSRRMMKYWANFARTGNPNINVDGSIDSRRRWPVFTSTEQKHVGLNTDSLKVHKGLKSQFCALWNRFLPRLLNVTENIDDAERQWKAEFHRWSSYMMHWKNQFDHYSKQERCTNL
Sequence of Cholinesterase (P81908 whole entry): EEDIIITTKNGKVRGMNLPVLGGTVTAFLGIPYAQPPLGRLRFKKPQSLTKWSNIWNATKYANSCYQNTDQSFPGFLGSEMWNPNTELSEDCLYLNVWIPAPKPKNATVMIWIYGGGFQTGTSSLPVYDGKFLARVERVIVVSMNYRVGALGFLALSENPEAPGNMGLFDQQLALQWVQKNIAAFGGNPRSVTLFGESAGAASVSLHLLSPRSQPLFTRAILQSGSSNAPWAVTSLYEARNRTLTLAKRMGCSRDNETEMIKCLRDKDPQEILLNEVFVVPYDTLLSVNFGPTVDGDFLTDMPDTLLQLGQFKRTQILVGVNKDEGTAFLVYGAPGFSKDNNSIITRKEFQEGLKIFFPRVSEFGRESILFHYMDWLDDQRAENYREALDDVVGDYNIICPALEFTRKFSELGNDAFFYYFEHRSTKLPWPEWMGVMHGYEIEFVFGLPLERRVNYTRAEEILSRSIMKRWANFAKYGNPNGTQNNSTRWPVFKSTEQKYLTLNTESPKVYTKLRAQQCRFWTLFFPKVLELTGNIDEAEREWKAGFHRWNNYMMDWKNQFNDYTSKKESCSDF
Sequence of Acetylcholinesterase (Electrophorus electricus) (O42275 24-633 limits assumed): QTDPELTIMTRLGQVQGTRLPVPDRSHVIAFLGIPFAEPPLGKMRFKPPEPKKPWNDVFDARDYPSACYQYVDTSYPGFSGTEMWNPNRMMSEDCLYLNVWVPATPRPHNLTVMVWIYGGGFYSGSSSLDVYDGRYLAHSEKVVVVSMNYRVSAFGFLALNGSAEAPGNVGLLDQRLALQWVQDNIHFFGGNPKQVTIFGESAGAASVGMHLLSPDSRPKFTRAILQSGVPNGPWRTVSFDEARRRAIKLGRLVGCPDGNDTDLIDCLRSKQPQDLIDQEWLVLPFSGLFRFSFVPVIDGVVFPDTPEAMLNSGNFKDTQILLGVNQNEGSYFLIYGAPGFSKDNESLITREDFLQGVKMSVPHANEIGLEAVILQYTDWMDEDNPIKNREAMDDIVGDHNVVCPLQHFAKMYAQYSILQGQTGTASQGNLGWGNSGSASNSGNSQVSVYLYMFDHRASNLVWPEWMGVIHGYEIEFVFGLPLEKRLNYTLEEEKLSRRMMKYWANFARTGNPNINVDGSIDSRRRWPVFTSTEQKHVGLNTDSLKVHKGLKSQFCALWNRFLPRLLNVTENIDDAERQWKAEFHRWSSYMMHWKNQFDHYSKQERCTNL

COc1cc(/C=C/c2ccc(OCCCCCCCCN(C)Cc3ccccc3)cc2)cc(OC)c1
IC50 (Acetylcholinesterase): 26.5 µM
IC50 [1]: > 100 µM
IC50 [2]: > 100 µM
IC50 (Cholinesterase): 46.8 µM

CCN(CCCCCCOc1ccc(/C=C/c2cc(OC)cc(OC)c2)cc1)Cc1ccccc1
Ratio IC50 (Homo sapiens): 0.65
IC50 (Acetylcholinesterase): 1.56 µM
IC50 [1]: 58.3 µM
inhibition [3]: Active
IC50 [2]: 89.6 µM
IC50 (Cholinesterase): 3.64 µM

COc1cc(/C=C/c2ccc(OCCCCCCN3CCOCC3)cc2)cc(OC)c1
IC50 (Acetylcholinesterase): 24.4 µM
IC50 [1]: > 100 µM
IC50 [2]: > 100 µM
IC50 (Cholinesterase): 34.3 µM

COc1cc(/C=C/c2ccc(OCCCCCCN(C)C)cc2)cc(OC)c1
Ratio IC50 (Homo sapiens): 0.2
IC50 (Acetylcholinesterase): 8.19 µM
IC50 [1]: 7.52 µM
IC50 [2]: 37.5 µM
IC50 (Cholinesterase): 10.3 µM

CCN(CCCCCCOc1ccc(/C=C/c2cc(OC)cc(OC)c2)cc1)Cc1ccccc1OC
IC50 (Acetylcholinesterase): 54.9 µM
IC50 [1]: > 100 µM
IC50 [2]: > 100 µM
IC50 (Cholinesterase): 2.27 µM

CCN(CC)CCCCCCOc1ccc(/C=C/c2cc(OC)cc(OC)c2)cc1
Ratio IC50 (Homo sapiens): 0.31
IC50 (Acetylcholinesterase): 4.15 µM
IC50 [1]: 10.1 µM
IC50 [2]: 33.1 µM
IC50 (Cholinesterase): 13.2 µM

COc1cc(/C=C/c2ccc(OCCCCCCN3CCCCC3)cc2)cc(OC)c1
Ratio IC50 (Homo sapiens): 0.48
IC50 (Acetylcholinesterase): 5.02 µM
IC50 [1]: 14.2 µM
IC50 [2]: 29.8 µM
IC50 (Cholinesterase): 10.7 µM

COc1cc(/C=C/c2ccc(OCCCCCCN3CCCC3)cc2)cc(OC)c1
Ratio IC50 (Homo sapiens): 0.7
IC50 (Acetylcholinesterase): 6.55 µM
viability at 24 h, 50 µM [4]: 90.8%
IC50 [1]: 12.2 µM
viability at 24 h, 5 µM [5]: 95.6%
IC50 [2]: 17.6 µM
viability at 24 h, 10 µM [6]: 94.4%
viability at 24 h, 1 µM [7]: 97%
IC50 (Cholinesterase): 8.04 µM
viability at 24 h, 25 µM [8]: 93.2%

CCN(CCCCCCOc1ccc(/C=C/c2cc(OC)cc(OC)c2)cc1)Cc1cccc(OC)c1
IC50 (Acetylcholinesterase): 71.5 µM
IC50 [1]: > 100 µM
IC50 [2]: > 100 µM
IC50 (Cholinesterase): > 100 µM

COc1cc(/C=C/c2ccc(OCCCCCCN3CCC(O)CC3)cc2)cc(OC)c1
Ratio IC50 (Homo sapiens): < 0.14
IC50 (Acetylcholinesterase): 17.2 µM
IC50 [1]: 14.6 µM
IC50 [2]: > 100 µM
IC50 (Cholinesterase): 23.1 µM

COc1cc(/C=C/c2ccc(OCCCCCN(C)Cc3ccccc3)cc2)cc(OC)c1
Ratio IC50 (Homo sapiens): 0.16
IC50 (Acetylcholinesterase): 39.2 µM
IC50 [1]: 16.2 µM
IC50 [2]: 97.4 µM
IC50 (Cholinesterase): 43.7 µM

Oc1ccc(/C=C/c2cc(O)cc(O)c2)cc1 [RESVERATROL]
IC50 (Acetylcholinesterase): 165 µM
IC50 (Cholinesterase): 752 µM

CCN(CCCCCCOc1ccc(/C=C/c2cc(OC)cc(OC)c2)cc1)Cc1ccc(OC)cc1
IC50 (Acetylcholinesterase): 89.7 µM
IC50 [1]: > 100 µM
IC50 [2]: > 100 µM
IC50 (Cholinesterase): > 100 µM

COc1cc(/C=C/c2ccc(OCCN(C)Cc3ccccc3)cc2)cc(OC)c1
Ratio IC50 (Homo sapiens): < 0.89
IC50 (Acetylcholinesterase): 79.3 µM
IC50 [1]: 89 µM
IC50 [2]: > 100 µM
IC50 (Cholinesterase): 89.6 µM

CCN(CCCCCCOc1ccc(/C=C/c2cc(OC)cc(OC)c2)cc1)Cc1cccc(F)c1
Ratio IC50 (Homo sapiens): < 0.97
IC50 (Acetylcholinesterase): 77.8 µM
IC50 [1]: 97.5 µM
IC50 [2]: > 100 µM
IC50 (Cholinesterase): 52 µM

COc1cc(/C=C/c2ccc(OCCCN(C)Cc3ccccc3)cc2)cc(OC)c1
Ratio IC50 (Homo sapiens): < 0.5
IC50 (Acetylcholinesterase): 58.1 µM
IC50 [1]: 5.01 µM
IC50 [2]: > 100 µM
IC50 (Cholinesterase): 77.3 µM

CCN(CCCCCCOc1ccc(/C=C/c2cc(OC)cc(OC)c2)cc1)Cc1ccccc1F
IC50 (Acetylcholinesterase): 86.6 µM
IC50 [1]: > 100 µM
IC50 [2]: > 100 µM
IC50 (Cholinesterase): 53 µM

COc1cc(/C=C/c2ccc(OCCCCCCN3CCCCC3C)cc2)cc(OC)c1 (stereo unspecified)
Ratio IC50 (Homo sapiens): 0.67
IC50 (Acetylcholinesterase): 4.07 µM
IC50 [1]: 16.3 µM
IC50 [2]: 24.3 µM
IC50 (Cholinesterase): 10.1 µM

CCN(CCCCCCOc1ccc(/C=C/c2cc(OC)cc(OC)c2)cc1)Cc1ccc(F)cc1
IC50 (Acetylcholinesterase): 92.3 µM
IC50 [1]: > 100 µM
IC50 [2]: > 100 µM
IC50 (Cholinesterase): 85.4 µM

COc1cc(/C=C/c2ccc(OCCCCCCCN(C)Cc3ccccc3)cc2)cc(OC)c1
Ratio IC50 (Homo sapiens): < 0.64
IC50 (Acetylcholinesterase): 23.4 µM
IC50 [1]: 63.8 µM
IC50 [2]: > 100 µM
IC50 (Cholinesterase): 41.7 µM

CCCN(CCC)CCCCCCOc1ccc(/C=C/c2cc(OC)cc(OC)c2)cc1
Ratio IC50 (Homo sapiens): 1.03
IC50 (Acetylcholinesterase): 12.1 µM
IC50 [1]: 92.4 µM
IC50 [2]: 89.4 µM
IC50 (Cholinesterase): 7.49 µM

COc1cc(/C=C/c2ccc(OCCCCCCN(C)Cc3ccccc3)cc2)cc(OC)c1
Ratio IC50 (Homo sapiens): 0.45
IC50 (Acetylcholinesterase): 11.7 µM
IC50 [1]: 40.3 µM
IC50 [2]: 90.4 µM
IC50 (Cholinesterase): 26.4 µM

COc1cc(/C=C/c2ccc(OCCCCN(C)Cc3ccccc3)cc2)cc(OC)c1
Ratio IC50 (Homo sapiens): < 0.35
IC50 (Acetylcholinesterase): 60.9 µM
IC50 [1]: 34.6 µM
IC50 [2]: > 100 µM
IC50 (Cholinesterase): 40.6 µM
